This note sets out measurements from US20090137451A1, “Methods for Assessing Suitability of Cancer Patients for Treatment with Histone Deacetylase Inhibitors” (Agency for Science, Technology and Research, priority 2005, published 2009).

Common to all, as to format: cell-based, human
The subject of test [1] is ER-E2F1 expressing HCT116 p53 null cells. Put plainly: Cell death (sub-G1) by PI staining and FACS in ER-E2F1 expressing cells. To be noted: for sub-G1 cells indicative of cell death: 48 h; for SAHA-induced apoptosis (cells in Sub-G1): in the presence of 4-OHT, SAHA 24 h.
Experimental: The effect of Bim-specific siRNA on HDACI-induced apoptosis upon E2F1 overexpression. (a) ER-E2F1 were transfected with nonspecific control siRNA (NC siRNA) or Bim-specific siRNA for 48 h, and then either left untreated (−) or treated with 4-OHT, SAHA or both for additional 24 h. […] Cell death was analyzed by flow cytometry following propidium iodide staining (right panel). The percentages of cells in Sub-G1 are indicated. (b) ER-E2F1 were transfected with nonspecific control siRNA (NC siRNA) or Bim-specific siRNA for 48 h, and then either left untreated (−) or treated with 4-OHT, 100 nM TSA or both for additional 48 h.
Cells were harvested and fixed in 70% ethanol. Fixed cells were stained with propidium iodide (50 μg/ml) after treatment with RNase (100 μg/ml). The stained cells were analyzed for DNA content by fluorescence-activated cell sorting (FACS) in a FACScalibur (Becton Dickinson Instrument, San Jose, Calif.). Cell cycle fractions were quantified using the CellQuest software (Becton Dickinson).
To definitively establish the role of Bim in HDACIs-induced apoptosis upon E2F1 activation, we used RNA interference to silence Bim expression and analyzed its biological effects. To this end, we transfected ER-E2F1 expressing cells with Bim-specific siRNA and treated with SAHA for 24 h in the presence or absence of 4-OHT. As controls, cells were also transfected with an irrelevant siRNA.
Test [2] concerns E1A-transformed IMR90 cells. The test is described as follows: Apoptosis by FACS analysis in E1A-transformed IMR90 cells. The following applies: SAHA 2.5 μM, TSA 300 nM; 48 h. On the procedure: FIG. 5. Rb inactivation enhances Bim expression and sensitizes HDACIs-induced apoptosis. (a) U2OS cells were infected with Ad-E1A or Ad-LacZ for 24 h and treated with SAHA (1 μM) for additional 48 h. Cell death was determined by FACS analysis (right panel), and the levels of Bim and p73 were assessed by immunoblotting using antibodies against the indicated proteins (left panel). (b) Normal IMR90 and transformed IMR90-E1A cells were treated with SAHA at indicated concentrations and cell proliferation was evaluated for indicated times. (c) Expression of E1A results in upregulation of Bim and apoptosis potentiation in response to SAHA and TSA. […] Cell death was determined by FACS analysis (left panel), and the levels of Bim and p73 were assessed by immunoblotting using antibodies against indicated proteins (right panel). […] The expressions of Bim and β-actin were assessed by immunoblotting using antibodies against the indicated proteins. Apoptosis was evaluated by FACS analysis. […] The expressions of E2F1, Bim and PARP were assessed by immunoblotting using antibodies against the indicated proteins. […] Apoptosis was evaluated by FACS analysis.
Cells were harvested and fixed in 70% ethanol. […] The stained cells were analyzed for DNA content by fluorescence-activated cell sorting (FACS) in a FACScalibur (Becton Dickinson Instrument, San Jose, Calif.). […]
(In general: In flow cytometry, cells or beads pass a laser one at a time.)

The test system of the next test is normal IMR90 cells. The test is described as follows: Cell proliferation, dose-response, normal IMR90 cells. To be noted: dose-response study, FIG. 5b. On the procedure:
(§1) FIG. 5. Rb inactivation enhances Bim expression and sensitizes HDACIs-induced apoptosis. (a) U2OS cells were infected with Ad-E1A or Ad-LacZ for 24 h and treated with SAHA (1 μM) for additional 48 h. Cell death was determined by FACS analysis (right panel), and the levels of Bim and p73 were assessed by immunoblotting using antibodies against the indicated proteins (left panel). (b) Normal IMR90 and transformed IMR90-E1A cells were treated with SAHA at indicated concentrations and cell proliferation was evaluated for indicated times. (c) Expression of E1A results in upregulation of Bim and apoptosis potentiation in response to SAHA and TSA. IMR90 and IMR90-E1A cells were treated with SAHA (2.5 μM) and TSA (300 nM) for 48 h. Cell death was determined by FACS analysis (left panel), and the levels of Bim and p73 were assessed by immunoblotting using antibodies against indicated proteins (right panel). (d) IMR90-E1A cells transfected with Bim siRNA or control siRNA (NC siRNA) were treated with TSA (800 nM) for 24 h. The expressions of Bim and β-actin were assessed by immunoblotting using antibodies against the indicated proteins. Apoptosis was evaluated by FACS analysis. […] The expressions of E2F1, Bim and PARP were assessed by immunoblotting using antibodies against the indicated proteins. […] Apoptosis was evaluated by FACS analysis. […]

For test [3], the system named is transformed IMR90-E1A cells. The test is described as follows: Cell proliferation, dose-response, transformed IMR90-E1A cells. The following applies: dose-response study, FIG. 5b. On the procedure: as §1
The next test has as its system ER-E2F1 expressing cells. Put plainly: Colony formation assay. The following applies: 100 nM TSA or 1 μM SAHA for 24 h, with 4-OHT; colonies stained with crystal violet. On the procedure:
FIG. 1. HDACIs SAHA and TSA promote E2F1-mediated cell death (a) p53 null HCT116-ER-E2F1 expressing cells or control ER expressing cells were treated with or without 4-OHT. Cyclin E and p73 expression were evaluated by immunoblot analysis. (b) ER-E2F1 expressing or control cells were treated with 1 μM SAHA (left panel) or 100 nM TSA (right panel), in the presence or absence of 4-OHT. After 48 h, cells were harvested and cell death was assessed by PI staining using FACS. Mean results of three independent experiments were shown with standard deviations. (c) Colony formation assay. […] (d) Saos-2 and HCT116 cells infected with adenovirus containing E2F1 or LacZ as indicated were treated with 100 nM TSA for 24 h, and cell death was analyzed by FACS.
1000 cells were plated per well of a 6-well plate for 24-48 h and then followed by 100 nM TSA or 1 μM SAHA treatment in the presence or absence of 4-OHT. […] Colonies were stained with crystal violet and counted after 12 days.
To investigate whether E2F1 activation induces sensitization of cells to HDACIs-induced cell death, we analyzed the cell cycle profiles by FACS (fluorescence-activated cell sorter) in ER-E2F1 expressing HCT116 p53 null cells (ER-E2F1) and the control cells expressing ER-binding domain only (ER) following treatment with the HDACIs SAHA or TSA in the presence or absence of 4-OHT. […]

Setting [4] is: agent alone, 1 μM SAHA, PI staining FACS.
[5] abbreviates: both 4-OHT and HDACI (1 μM SAHA or 100 nM TSA).

In the case of `O=C(CCCCCCC(=O)Nc1ccccc1)NO` [SAHA, suberoylanilide hydroxamic acid], the “sub-G1 cells indicative of cell death” value in test [1] (setting [4]) is reported as about 23%; in test [1] (setting [5]), 75%. The figures for the “SAHA-induced apoptosis (cells in Sub-G1)” value in test [1] (cells treated with Bim siRNA) and in test [1] (control siRNA treated cells) were 18% and 49%, respectively. Moreover, the apoptosis in test [2] was about 60%. The proliferation result (with normal IMR90 cells; in test [3]) was “substantially inhibited proliferation” in each case. Moreover, the “effect of E2F1 activation by 4-OHT on HDACI-induced growth inhibition” value with ER-E2F1 expressing cells was “greatly promoted”.

On to `CC(/C=C/C(=O)NO)=C\[C@@H](C)C(=O)c1ccc(N(C)C)cc1` [TSA, Trichostatin A], for which, in test [1] (setting [5]), the “sub-G1 cells indicative of cell death” value is “Identical results”. For the same molecule, the apoptosis in test [2] was about 60%. Further, in the test with ER-E2F1 expressing cells, the “effect of E2F1 activation by 4-OHT on HDACI-induced growth inhibition” value is on record as “greatly promoted”.

With 4-hydroxytamoxifen [4-OHT], the “sub-G1 cells indicative of cell death” value in test [1] (setting [4]) is “approximately 13%”.
